In paper PMC11571207, “Stereorandomized Oncocins with Preserved Ribosome Binding and Antibacterial Activity” (Journal of Medicinal Chemistry, 2024):
Read-outs that look alike come from different tables or passages of the source. Non-standard residues stand in square brackets, D forms with d. Residues, ends and D or L forms follow the SMILES beside them.

Legend:
human red blood cells = assay: Hemolysis assay, minimum hemolytic concentration
[1] = system: P. aeruginosa PA14 4.18 (pmrB); conditions: for MIC P. aeruginosa PA14 4.18: supplement CSV
K. pneumoniae OXA-48 = assay: microbe, parasite or virus in culture; conditions: for MIC K. pneumoniae OXA-48: supplement CSV
Procedure: (§1) Minimum inhibitory concentration assay
(§2) Antimicrobial activity was assayed against P. aeruginosa PAO1, K. pneumoniae NCTC418, E. coli W3110, A. baumannii ATCC 19606, methicillin-resistant S. aureus COL (MRSA), and for selected peptides on P. aeruginosa PA14 and the polymyxin-B-resistant derivative PA14 2P4, as well as the clinical isolates ZEM-1A and ZEM9A, K. pneumoniae OXA-48, S. aureus Newman, Enterobacter cloacae and Burkholderia cenocepacia. The minimal inhibitory concentration (MIC) was determined by using broth microdilution method. A colo ny of bacteria was picked and grown in Luria-Bertani (LB) medium overnight at 37°C. For E. coli BW25113 sbmA::kan the medium was supplemented with 25 mg/L of kanamycin. The next day, the culture was then regrown in LB medium to log phase (OD600 = 0.6 to 0.8), which lasted approximately 4 h, and diluted to an OD600 of 0.022 in the desired medium. Stock solutions of 1 mg/mL of the samples were prepared in sterilized milliQ water and diluted to the beginning concentration of 64 μg/mL in 300 μL Mueller Hinton (MH)-medium. The diluted samples were added to first well of 96-well microtiter plate (TPP, untreated, Faust Laborbedarf, AG, Schaffhausen) and diluted serially by ½. Finally, 4 μL of the bacterial suspension was inoculated into the sample solutions (150 μL/well) with a final inoculation of about 5∙10^5 CFU/mL. The plates were then incubated at 37°C for 15-18h. For each assay, sterility (broth only) and growth control (broth with bacterial inoculum, without antibiotics) were checked with two columns in the plate. The next day, 15 μL of 3-(4,5-dimethylthiazol-2-yl)-2,5-diphenyltetrazolium bromide (MTT) was added to each well of the plate, such a way that MIC was defined as the lowest concentration of the peptide that inhibited visible growth of the tested

E. cloacae = assay: microbe, parasite or virus in culture; conditions: for MIC E. cloacae: supplement CSV
Procedure: as §1, §2

P. aeruginosa ZEM9A = assay: microbe, parasite or virus in culture; conditions: for MIC P. aeruginosa ZEM9A: supplement CSV
Procedure: as §1, §2

[2] = system: P. aeruginosa PA14 2P4 (pmrB); assay: microbe, parasite or virus in culture; conditions: for MIC P. aeruginosa PA14 2P4: supplement CSV
Procedure: as §1, §2

P. aeruginosa ZEM-1A = assay: microbe, parasite or virus in culture
Procedure: as §1, §2

P. aeruginosa PA14 = assay: microbe, parasite or virus in culture; conditions: for MIC P. aeruginosa PA14: supplement CSV
Procedure: as §1, §2

[3] = system: P. aeruginosa PA14 4.13 (phoQ); conditions: for MIC P. aeruginosa PA14 4.13: supplement CSV
K. pneumoniae NCTC 418 = assay: microbe, parasite or virus in culture; conditions: for MIC K. pneumoniae NCTC418: supplement CSV
Method in brief: (§3)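 Read-out was visible growth after MTT addition, the MIC being the lowest inhibitory peptide concentration. Bacteria grown to log phase in LB were exposed in MH medium to peptide from 64 μg/mL in twofold dilutions for 15-18h at 37°C.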

P. aeruginosa PAO1 = assay: microbe, parasite or virus in culture; conditions: for MIC P. aeruginosa PAO1: supplement CSV
Method in brief: as §3

A. baumannii ATCC19606 = assay: microbe, parasite or virus in culture; conditions: for MIC A. baumannii ATCC19606: supplement CSV
Method in brief: as §3

E. coli W3110 = assay: microbe, parasite or virus in culture; conditions: for MIC E. coli W3110: supplement CSV
Method in brief: as §3

S. aureus COL (MRSA) = assay: microbe, parasite or virus in culture; conditions: for MIC S. aureus COL (MRSA): supplement CSV
Method in brief: as §3

[4] = polymyxin B resistant strain, 12.5% MHB pH 7.4, 16–20 h at 37 °C
[5] = polymyxin B resistant strain, full MHB pH 7.4, 16–20 h at 37 °C

CC[C@@H](C)[C@@H](NC(=O)[C@@H](CCCNC(=N)N)NC(=O)[C@H](CCCNC(=N)N)NC(=O)[C@@H]1CCCN1C(=O)[C@@H]1CCCN1C(=O)[C@H](CCCNC(=N)N)NC(=O)[C@@H]1CCCN1C(=O)[C@H](CCCNC(=N)N)NC(=O)[C@@H]1CCCN1C(=O)[C@H](CC(C)C)NC(=O)[C@H](Cc1ccc(O)cc1)NC(=O)[C@@H]1CCCN1C(=O)[C@@H]1CCCN1C(=O)[C@H](CCCCN)NC(=O)[C@H](CC(=O)O)NC(=O)[C@@H](N)C(C)C)C(=O)N[C@H](Cc1ccc(O)cc1)C(=O)N[C@H](CC(N)=O)C(=O)N[C@H](CCCNC(=N)N)C(N)=O [D5Cterm-Onc] (H-VDKPPYLPRPRPPR[dR][dI][dY][dN][dR]-NH2)
4 µg/mL: MIC K. pneumoniae OXA-48, 12.5% MHB (K. pneumoniae OXA-48; carbapenem-resistant, 12.5% MHB pH 7.4, 16–20 h at 37 °C) | MIC K. pneumoniae OXA-48 (K. pneumoniae OXA-48; 12.5% MH pH 7.4) | MIC K. pneumoniae, Full MHB (K. pneumoniae NCTC 418; K. pneumoniae NCTC 418, full Müller–Hinton medium, 16–20 h at 37 °C) | MIC K. pneumoniae NCTC418 (K. pneumoniae NCTC 418; full MH pH 7.4) | MIC E. coli, Full MHB (E. coli W3110; E. coli W3110, full Müller–Hinton medium, 16–20 h at 37 °C, broth microdilution) | MIC E. coli W3110 (E. coli W3110; full MH pH 7.4)
4 to 8 µg/mL: MIC P. aeruginosa ZEM-1A, 12.5% MHB (P. aeruginosa ZEM-1A; clinical isolate, 12.5% MHB pH 7.4, 16–20 h at 37 °C, cells marked c: single measurement (in duplicates)) | MIC P. aeruginosa ZEM-1A (P. aeruginosa ZEM-1A; supplement CSV, 12.5% MH pH 7.4)
8 µg/mL: MIC P. aeruginosa PA14 4.18 (pmrB), 12.5% MHB [1, 4] | MIC P. aeruginosa PA14 4.18 ([1]; 12.5% MH pH 7.4) | MIC P. aeruginosa PA14, 12.5% MHB (P. aeruginosa PA14; 12.5% MHB pH 7.4, 16–20 h at 37 °C, two different duplicate MIC determinations) | MIC P. aeruginosa PA14 (P. aeruginosa PA14; 12.5% MH pH 7.4) | MIC P. aeruginosa PA14 4.13 (phoQ), 12.5% MHB [3, 4] | MIC P. aeruginosa PA14 4.13 ([3]; 12.5% MH pH 7.4) | MIC P. aeruginosa, 12.5% MHB (P. aeruginosa PAO1; P. aeruginosa PAO1, 12.5% Müller–Hinton medium, 16–20 h at 37 °C) | MIC P. aeruginosa PAO1 (P. aeruginosa PAO1; 12.5% MH pH 7.4) | MIC A. baumannii, 12.5% MHB (A. baumannii ATCC19606; A. baumannii ATCC19606, 12.5% Müller–Hinton medium, 16–20 h at 37 °C) | MIC A. baumannii ATCC19606 (A. baumannii ATCC19606; 12.5% MH pH 7.4)
2 µg/mL: MIC P. aeruginosa ZEM9A, 12.5% MHB (P. aeruginosa ZEM9A; clinical isolate, 12.5% MHB pH 7.4, 16–20 h at 37 °C) | MIC P. aeruginosa ZEM9A (P. aeruginosa ZEM9A; 12.5% MH pH 7.4) | MIC P. aeruginosa PA14 2P4 (pmrB), 12.5% MHB [2, 4] | MIC P. aeruginosa PA14 2P4 ([2]; 12.5% MH pH 7.4) | MIC K. pneumoniae, 12.5% MHB (K. pneumoniae NCTC 418; K. pneumoniae NCTC 418, 12.5% Müller–Hinton medium, 16–20 h at 37 °C) | MIC K. pneumoniae NCTC418 (K. pneumoniae NCTC 418; 12.5% MH pH 7.4) | MIC E. coli, 12.5% MHB (E. coli W3110; E. coli W3110, 12.5% Müller–Hinton medium, 16–20 h at 37 °C, broth microdilution) | MIC E. coli W3110 (E. coli W3110; 12.5% MH pH 7.4)
>64 µg/mL: MIC P. aeruginosa ZEM9A (P. aeruginosa ZEM9A; full MH pH 7.4) | MIC P. aeruginosa PA14 2P4 ([2]; full MH pH 7.4) | MIC P. aeruginosa PA14 (P. aeruginosa PA14; full MH pH 7.4) | MIC S. aureus COL (MRSA) (S. aureus COL (MRSA); full MH pH 7.4)
1 µg/mL: MIC E. cloacae, 12.5% MHB (E. cloacae; 12.5% MHB pH 7.4, 16–20 h at 37 °C) | MIC E. cloacae (E. cloacae; 12.5% MH pH 7.4)
32 µg/mL: MIC K. pneumoniae OXA-48, full MHB (K. pneumoniae OXA-48; carbapenem-resistant, full MHB pH 7.4, 16–20 h at 37 °C) | MIC K. pneumoniae OXA-48 (K. pneumoniae OXA-48; full MH pH 7.4) | MIC E. cloacae, full MHB (E. cloacae; full MHB pH 7.4, 16–20 h at 37 °C) | MIC E. cloacae (E. cloacae; full MH pH 7.4) | MIC S. aureus, 12.5% MHB (S. aureus COL (MRSA); S. aureus COL (MRSA), 12.5% Müller–Hinton medium, 16–20 h at 37 °C) | MIC S. aureus COL (MRSA) (S. aureus COL (MRSA); 12.5% MH pH 7.4)
64 µg/mL: MIC P. aeruginosa PA14 4.18 (pmrB), full MHB [1, 5] | MIC P. aeruginosa PA14 4.18 ([1]; full MH pH 7.4) | MIC P. aeruginosa PA14 4.13 (phoQ), full MHB [3, 5] | MIC P. aeruginosa PA14 4.13 ([3]; full MH pH 7.4) | MIC P. aeruginosa, Full MHB (P. aeruginosa PAO1; P. aeruginosa PAO1, full Müller–Hinton medium, 16–20 h at 37 °C) | MIC P. aeruginosa PAO1 (P. aeruginosa PAO1; full MH pH 7.4) | MIC A. baumannii, Full MHB (A. baumannii ATCC19606; A. baumannii ATCC19606, full Müller–Hinton medium, 16–20 h at 37 °C) | MIC A. baumannii ATCC19606 (A. baumannii ATCC19606; full MH pH 7.4)
> 64 µg/mL: MIC P. aeruginosa ZEM9A, full MHB (P. aeruginosa ZEM9A; clinical isolate, full MHB pH 7.4, 16–20 h at 37 °C) | MIC P. aeruginosa PA14 2P4 (pmrB), full MHB [2, 5] | MIC P. aeruginosa PA14, full MHB (P. aeruginosa PA14; full MHB pH 7.4, 16–20 h at 37 °C, two different duplicate MIC determinations) | MIC S. aureus, Full MHB (S. aureus COL (MRSA); S. aureus COL (MRSA), full Müller–Hinton medium, 16–20 h at 37 °C)
>1000 µg/mL: Haemolysis on hRBC, MHC (human red blood cells; 2.5% human red blood cells (final) in 10 mM phosphate, 150 mM NaCl, pH 7.4, 25 °C, 4 h, visual inspection) | MHC human red blood cells (human red blood cells; supplement CSV)
